Measured values as given in ChEMBL document CHEMBL1201862, “PubChem BioAssay data set” (2004).
The source made the active and inactive calls.

Key:
[1] = target: T1, Calpain-2 catalytic subunit (Sus scrofa, UniProt P43367); experiment: m-calpain protease blockers, concentration series – biochemical, fluorogenic peptide substrate, dose response (AID 1420); type: functional
T1 sequence (P43367 whole entry): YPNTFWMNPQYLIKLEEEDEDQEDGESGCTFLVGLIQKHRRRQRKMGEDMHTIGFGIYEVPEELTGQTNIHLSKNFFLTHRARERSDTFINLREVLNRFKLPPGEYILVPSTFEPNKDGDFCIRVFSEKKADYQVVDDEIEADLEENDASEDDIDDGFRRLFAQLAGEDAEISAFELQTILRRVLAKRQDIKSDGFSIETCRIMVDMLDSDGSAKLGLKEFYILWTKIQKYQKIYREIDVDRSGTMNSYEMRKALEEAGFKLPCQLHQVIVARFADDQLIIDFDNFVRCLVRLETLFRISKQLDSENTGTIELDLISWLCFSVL

[2] = reduction of Shn3 3'UTR-driven luciferase in osteoblasts – cell-based, Clone20 osteoblasts, firefly luciferase, cherry-picked, dose response (AID 624132); type: functional;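 also: firefly luciferase luminescence from reporter carrying the Shn3 3'UTR in osteoblasts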
[3] = non-specific 3'UTR reporter inhibition in Clone20-Shn3RL – cell-based, Renilla luciferase, cherry-picked, counter-screen for Shn3 inhibitor project, dose response (AID 624133); type: functional
[4] = loss of viability in HepG2 cells – cell-based, CellTiter-Glo, cherry-picked, cytotoxicity control for Shn3 inhibitor project, dose response (AID 624134); type: functional
Vero = experiment: cells; type: functional; conditions: Chlorocebus sabaeus
[5] = blockers of HIV-1 envelope-mediated cell-cell fusion – cherry-pick, dose response (AID 652057); type: functional, cell-based
[6] = HIV-1 AD8 envelope cell-cell fusion blockers – cherry-pick, dose response (AID 652062); type: functional, cell-based;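 also: luciferase signal from cell-cell fusion driven by HIV-1 clade B AD8 Env; potency is for inhibitors of fusion seen as a drop in luminescence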
[7] = target: T2, Carboxy-terminal domain RNA polymerase II polypeptide A small phosphatase 1 (Homo sapiens, UniProt Q9GZU7); experiment: CTDSP1 inhibitors, concentration-response, biochemical, absorbance readout, ultra-high-throughput screen actives (AID 540297); type: functional
T2 sequence (Q9GZU7 whole entry): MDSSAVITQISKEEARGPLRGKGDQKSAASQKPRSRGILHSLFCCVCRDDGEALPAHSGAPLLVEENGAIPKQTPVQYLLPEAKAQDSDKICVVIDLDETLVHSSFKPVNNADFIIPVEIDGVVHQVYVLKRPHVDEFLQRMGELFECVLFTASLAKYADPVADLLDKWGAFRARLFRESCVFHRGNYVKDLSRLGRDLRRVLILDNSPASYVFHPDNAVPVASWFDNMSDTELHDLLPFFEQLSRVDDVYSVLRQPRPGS

Genome polyprotein = Genome polyprotein (dengue virus type 2, UniProt P29990); experiment: flavivirus cap methylation enzyme inhibition – biochemical, confirmation dose response, primary screen (AID 588689); type: functional
[8] = target: T3, Replicative DNA helicase DnaB (Mycobacterium tuberculosis, UniProt P9WMR3); experiment: DnaB intein splicing inhibitors, dose response, biochemical, cell-free fluorescence (AID 449749); type: functional
T3 sequence (P9WMR3 whole entry): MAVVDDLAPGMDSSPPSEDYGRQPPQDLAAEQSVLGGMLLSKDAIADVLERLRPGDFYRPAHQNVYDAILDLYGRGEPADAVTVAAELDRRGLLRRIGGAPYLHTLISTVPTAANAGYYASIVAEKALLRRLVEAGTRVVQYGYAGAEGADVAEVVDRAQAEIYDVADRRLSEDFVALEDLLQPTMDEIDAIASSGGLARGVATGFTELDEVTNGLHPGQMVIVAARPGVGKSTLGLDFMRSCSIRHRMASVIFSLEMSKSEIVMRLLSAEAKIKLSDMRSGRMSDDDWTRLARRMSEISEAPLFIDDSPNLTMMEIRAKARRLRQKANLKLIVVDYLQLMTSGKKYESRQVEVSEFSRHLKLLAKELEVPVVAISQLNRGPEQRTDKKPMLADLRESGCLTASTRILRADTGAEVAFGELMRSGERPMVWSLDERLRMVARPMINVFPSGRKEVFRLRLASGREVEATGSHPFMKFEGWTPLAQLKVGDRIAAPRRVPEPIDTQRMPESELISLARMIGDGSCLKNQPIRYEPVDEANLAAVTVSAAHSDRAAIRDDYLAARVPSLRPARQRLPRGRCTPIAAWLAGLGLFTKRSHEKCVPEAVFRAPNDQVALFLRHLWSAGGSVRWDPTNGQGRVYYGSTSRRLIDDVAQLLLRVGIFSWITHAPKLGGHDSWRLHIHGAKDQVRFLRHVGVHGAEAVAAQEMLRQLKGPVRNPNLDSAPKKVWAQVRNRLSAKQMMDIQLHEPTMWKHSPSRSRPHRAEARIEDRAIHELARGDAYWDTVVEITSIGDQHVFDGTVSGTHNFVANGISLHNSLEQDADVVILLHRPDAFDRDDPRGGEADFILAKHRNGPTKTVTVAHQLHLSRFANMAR

[9] = target: T4, Rac GTPase-activating protein 1 (Homo sapiens, UniProt Q9H0H5); experiment: blockers of MgcRacGAP-driven Rac1 GTP hydrolysis – biochemical, ADP Hunter fluorescence, primary and confirmatory, confirmation (AID 624330); type: functional
T4 sequence (Q9H0H5 whole entry): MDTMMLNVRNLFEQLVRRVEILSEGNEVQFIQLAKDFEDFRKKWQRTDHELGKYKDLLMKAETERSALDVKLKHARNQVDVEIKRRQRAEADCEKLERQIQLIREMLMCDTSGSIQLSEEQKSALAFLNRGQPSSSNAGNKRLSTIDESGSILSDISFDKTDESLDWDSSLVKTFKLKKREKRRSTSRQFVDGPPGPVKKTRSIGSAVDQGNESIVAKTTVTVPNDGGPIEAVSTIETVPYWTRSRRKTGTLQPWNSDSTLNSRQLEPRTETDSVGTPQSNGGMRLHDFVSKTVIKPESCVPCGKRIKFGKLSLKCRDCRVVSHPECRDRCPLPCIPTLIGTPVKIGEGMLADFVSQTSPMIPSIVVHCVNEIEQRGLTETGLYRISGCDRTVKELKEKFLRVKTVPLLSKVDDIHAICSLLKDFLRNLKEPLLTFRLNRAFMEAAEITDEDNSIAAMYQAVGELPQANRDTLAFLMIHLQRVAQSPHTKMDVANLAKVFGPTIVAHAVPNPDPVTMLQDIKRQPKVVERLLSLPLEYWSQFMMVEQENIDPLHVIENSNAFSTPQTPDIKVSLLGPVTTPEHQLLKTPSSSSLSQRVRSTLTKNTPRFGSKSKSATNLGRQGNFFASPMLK

Protein RecA = target: T5, Protein RecA (Mycobacterium tuberculosis, UniProt P9WHJ3); experiment: Fluorescence Cell-Free Homogeneous Dose Retest to Identify Inhibitors of RecA-Intein Splicing Activity. [Related pubchem assays (depositor defined):AID2097, AID2223, AID489010, AID492950]; type: functional
T5 sequence (P9WHJ3 whole entry): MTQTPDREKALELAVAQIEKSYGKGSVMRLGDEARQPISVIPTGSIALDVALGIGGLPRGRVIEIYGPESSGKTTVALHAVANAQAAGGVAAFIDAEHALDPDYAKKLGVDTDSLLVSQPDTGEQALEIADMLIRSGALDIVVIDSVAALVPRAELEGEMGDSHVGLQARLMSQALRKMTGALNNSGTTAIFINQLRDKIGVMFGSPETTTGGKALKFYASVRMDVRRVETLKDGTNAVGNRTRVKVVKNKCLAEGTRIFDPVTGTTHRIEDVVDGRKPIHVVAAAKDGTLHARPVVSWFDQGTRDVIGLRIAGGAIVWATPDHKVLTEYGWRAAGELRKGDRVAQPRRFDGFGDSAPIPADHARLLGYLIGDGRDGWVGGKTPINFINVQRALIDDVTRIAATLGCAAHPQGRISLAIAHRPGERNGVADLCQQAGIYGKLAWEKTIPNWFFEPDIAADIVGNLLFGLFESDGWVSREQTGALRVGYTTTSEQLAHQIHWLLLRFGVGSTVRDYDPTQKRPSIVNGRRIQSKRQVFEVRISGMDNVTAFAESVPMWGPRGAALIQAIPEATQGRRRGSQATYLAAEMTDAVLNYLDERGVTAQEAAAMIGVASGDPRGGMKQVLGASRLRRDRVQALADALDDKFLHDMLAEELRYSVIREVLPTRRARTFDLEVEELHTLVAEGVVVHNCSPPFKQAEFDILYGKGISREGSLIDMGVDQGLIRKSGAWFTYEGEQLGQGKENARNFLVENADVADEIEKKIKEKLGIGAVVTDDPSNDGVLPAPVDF

[10] = target: T6, Heat shock factor protein 1 (Mus musculus, UniProt P38532); experiment: decrease of HSF1-responsive luciferase luminescence – cell-based, NIH3T3, dose retest, confirmation (AID 2382); type: functional;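 also: NIH3T3 fibroblasts with HSF1-driven luciferase reporter stressed by proteasome inhibitor MG132; luminescence from HSF1-driven luciferase expression after 8 hours of MG132 stress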
T6 sequence (P38532 whole entry): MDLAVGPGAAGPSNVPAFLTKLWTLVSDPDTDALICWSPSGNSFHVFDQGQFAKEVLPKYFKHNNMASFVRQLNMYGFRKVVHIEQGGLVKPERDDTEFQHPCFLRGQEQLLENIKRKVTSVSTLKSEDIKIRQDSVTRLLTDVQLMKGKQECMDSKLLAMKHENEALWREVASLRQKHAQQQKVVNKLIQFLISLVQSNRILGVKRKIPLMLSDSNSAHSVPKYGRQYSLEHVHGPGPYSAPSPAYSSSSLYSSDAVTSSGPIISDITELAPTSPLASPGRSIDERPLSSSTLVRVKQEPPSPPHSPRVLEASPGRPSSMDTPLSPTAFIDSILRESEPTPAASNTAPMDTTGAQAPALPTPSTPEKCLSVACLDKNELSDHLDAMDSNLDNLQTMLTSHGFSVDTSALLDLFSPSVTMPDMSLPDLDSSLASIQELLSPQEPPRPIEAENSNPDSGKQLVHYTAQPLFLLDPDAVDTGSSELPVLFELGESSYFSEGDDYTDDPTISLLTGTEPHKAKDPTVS

[11] = viability of PTEN-deleted HCT116 cells – cell-based, HCT116 PTEN knockout, dose response (AID 1047); type: functional;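 also: HCT116 colon tumor cells with PTEN knocked out; cells exposed to compound for 60 hours before readout; potency for loss of cell viability measured by luminescence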

Chain of Genome polyprotein (P29990 2492-3391 limits assumed): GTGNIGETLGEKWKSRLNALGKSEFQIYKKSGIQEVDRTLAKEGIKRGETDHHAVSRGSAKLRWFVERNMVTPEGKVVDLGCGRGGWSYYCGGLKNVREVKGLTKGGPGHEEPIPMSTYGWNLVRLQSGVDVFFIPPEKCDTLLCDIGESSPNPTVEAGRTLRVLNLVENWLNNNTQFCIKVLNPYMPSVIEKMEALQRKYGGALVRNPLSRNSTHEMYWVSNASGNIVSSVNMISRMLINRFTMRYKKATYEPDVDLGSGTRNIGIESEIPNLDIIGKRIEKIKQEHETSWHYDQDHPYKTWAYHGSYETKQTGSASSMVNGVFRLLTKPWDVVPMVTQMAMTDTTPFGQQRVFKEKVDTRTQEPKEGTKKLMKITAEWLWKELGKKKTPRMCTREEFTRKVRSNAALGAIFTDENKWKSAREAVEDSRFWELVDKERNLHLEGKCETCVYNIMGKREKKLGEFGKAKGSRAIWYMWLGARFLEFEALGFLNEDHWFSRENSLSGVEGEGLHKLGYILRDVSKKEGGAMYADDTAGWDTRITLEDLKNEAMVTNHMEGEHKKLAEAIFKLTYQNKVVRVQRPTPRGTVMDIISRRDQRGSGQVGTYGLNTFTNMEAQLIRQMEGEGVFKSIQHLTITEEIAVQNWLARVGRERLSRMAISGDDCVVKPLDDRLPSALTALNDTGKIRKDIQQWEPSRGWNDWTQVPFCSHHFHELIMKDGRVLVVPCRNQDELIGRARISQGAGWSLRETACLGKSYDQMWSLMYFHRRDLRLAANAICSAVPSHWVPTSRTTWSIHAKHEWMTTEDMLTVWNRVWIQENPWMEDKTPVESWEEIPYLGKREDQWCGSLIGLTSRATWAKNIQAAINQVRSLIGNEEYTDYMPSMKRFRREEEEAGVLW

COc1ccc(C(=O)CSc2nc(N)nc(SC)c2C#N)cc1
IC50 [1]: 17.3 µM (not active)

Cc1cc(NNC(=O)c2cccc(C(F)(F)F)c2)nc2c1c(C)nn2C
AC50 [2]: 2.43 µM (active) | AC50 [3]: 3.61 µM (active) | AC50 [4]: 57 µM (active)

CC(=Nc1ccccc1)C1=C(O)C(Cc2ccc(O)cc2)NC1=O (stereo unspecified)
CC50 (Vero): 0.98 µM (active)

CC(Sc1nc2ccccc2c(=O)n1C)C(=O)Nc1ccc2c(c1)OCCO2 (stereo unspecified)
AC50 [2]: 1.94 µM (active) | AC50 [3]: 9.21 µM (active) | AC50 [4]: > 70 µM (inactive)

CCOC(=O)c1ccc(NC(=O)Cn2c(-c3nonc3N)nc3ccccc32)cc1
IC50 [1]: 18.8 µM (not active)

CN1C(=O)c2cc(NC(=O)c3cscn3)ccc2OC[C@H]2O[C@H](CC(=O)NCc3ccc(Cl)c(Cl)c3)CC[C@H]21
AC50 [5]: 11.3 µM (active) | AC50 [6]: 41.8 µM (active)

COc1ccccc1/C=C(/C(=O)OCC(=O)Nc1ccccc1C)c1ccccc1
IC50 [1]: 9.36 µM (not active)

CN(C)C(=O)c1ccc(NC(=O)c2cc(-c3ccco3)nc3ccccc23)cc1
IC50 [7]: 7.55 µM (active)

Cc1ccc(C)c(N2CCN(C(=O)CCS(=O)(=O)c3ccc4c(c3)NC(=O)C(C)S4)CC2)c1 (stereo unspecified)
AC50 [2]: 4.47 µM (active) | AC50 [3]: 8.6 µM (active) | AC50 [4]: 4.58 µM (active)

COc1cc(C(C2C(=O)CC(C)(C)CC2=O)C2C(=O)CC(C)(C)CC2=O)cc(OC)c1OC
IC50 (Genome polyprotein): 87.7 µM (active)

C[C@@H]1CN([C@@H](C)CO)S(=O)(=O)c2ccc(-c3cccc(F)c3)cc2O[C@@H]1CN(C)S(=O)(=O)c1ccc(F)cc1
AC50 [5]: 1.34 µM (active) | AC50 [6]: 24.2 µM (active)

COc1ccccc1/C=C1/C(=O)N(c2ccccc2)N=C1C
AC50 [8]: 96.6 µM (active) | IC50 [9]: 119 µM (active) | EC50 (Protein RecA): 0.0356 µM (active) | IC50 (Genome polyprotein): 90.2 µM (active)

CCOC(=O)c1ccc(/N=c2\scc(C)n2CC)cc1
IC50 [1]: > 50 µM (not active)

O=C(CCC1N=C2c3ccccc3N=C(SCC(=O)NCc3ccco3)N2C1=O)NCc1ccco1 (stereo unspecified)
IC50 [7]: 5.31 µM (active)

Cc1nn(Cc2cccc(C(=O)NC3CCCCC3)c2)c(C)c1Cl
CC50 (Vero): > 25 µM (active)

CCN(CC)CCNc1nc(-c2ccc(OC)cc2)c(-c2ccc(OC)cc2)s1
CC50 (Vero): > 25 µM (active)

Cc1c(NS(=O)(=O)c2cc(C(=O)NCCN(C)C)ccc2Cl)c(=O)n(-c2ccccc2)n1C
IC50 [7]: 9.93 µM (active) | EC50 [10]: > 195 µM (not active)

Cc1ccc(NC(=O)CN2CCC(Cc3ccccc3)CC2)cc1S(=O)(=O)N(C)C
IC50 [1]: 27.3 µM (not active)

COc1ccc(COC(=O)Nc2cc3c(C(F)(F)F)nn(C)c3s2)cc1
IC50 [1]: 14 µM (active)

CCCCNC(=O)c1ccccc1C(=O)NCCCC
IC50 [1]: < 0.4 µM (not active)

CC(CNC(=O)c1cc(COc2ccc3ncccc3c2)on1)c1ccccc1 (stereo unspecified)
AC50 [2]: 3.73 µM (active) | AC50 [3]: 11.2 µM (active) | AC50 [4]: 48.9 µM (active)

Cc1noc(-c2ccc(Cl)cc2)c1C(=O)ON=C(N)c1ccc(C(C)(C)C)cc1
CC50 (Vero): 18.8 µM (active)

CCOc1cc(/C=N/NC(=O)c2ccncc2)ccc1OS(C)(=O)=O
IC50 [1]: < 0.4 µM (not active)

CCN1CCN(c2cc(C)c3cc(NC(=O)c4ccc5c(c4)OCO5)ccc3n2)CC1
CC50 (Vero): > 25 µM (active) | EC50 [11]: 25.1 µM (active)

CCOC(=O)C1(C)C(N=Nc2cccc(Cl)c2)=C(O)C(=O)N1c1ccccc1 (stereo unspecified)
IC50 (Genome polyprotein): 18.4 µM (active)

COC(=O)c1ccc(NC(S)=NC2CC3CCC2C3)cc1 (stereo unspecified)
IC50 [1]: 16.4 µM (active)
